What was measured:
PDE3 = experiment: HTS drug screening for PDE3 (PDELight HTS cAMP Phosphodiesterase Kit, luminescence); assay type: biochemical; settings: compared with conventional drugs
Method: For drug screening, high-throughput screening (HTS) was used.
In addition, as described above, in the present invention, to screen materials for treating neurodegenerative diseases such as Alzheimer's disease and Lou Gehrig's disease, among PDE isoforms, PDE3 was selected as a target, and an optimized concentration to be used in the experiment was selected to construct a drug screening system as shown in FIG. 9.
Compounds included in the library of 800 FDA-approved drugs were diluted 1/4 from a concentration of 100 μM and dispensed into each well in 96-well plates, and mixed with a PDE reactant to allow a PDE reaction with the drug for 1 hour at a constant temperature.
For drug efficacy screening for PDE inhibition, HTS was used. cAMP-based screening was conducted with an FDA-approved drug library and a Selleckchem library based on the conventional PDE inhibitor. The experiment was carried out in the same manner as used in screening of the FDA-approved drug library. Compared with cilostazol, which is known as a PDE3 inhibitor, drugs with high inhibitory activity were selected. […] After a stop solution was mixed with a AMP detection agent, the mixture was dispensed at 20 μl per well to allow a reaction for 10 minutes, followed by immediately measuring luminescence, and the experiment was performed according to a protocol provided by the kit used herein.

G93A SOD-1 = G93A SOD-1 accumulation on AMX treatment (western blotting); assay type: cell-based
Method: Each type of cell was cultured under the culture conditions, a cell culture was restored, followed by preparing a particulate fraction in a 50 mM Tris buffer. Proteins obtained from the cell culture developed in a SDS polyacrylamide gel, transferred to an immobilon-P membrane (Millipore, USA), and reacted with antibodies overnight. Next day, western blots were washed, reacted with peroxidase-linked secondary antibodies at room temperature for 1 hour, followed by staining bands with 4-chloro-1-naphthol.
FIG. 16 is a graph representing the percent activity (% activity) according to the concentrations of finally selected amlexanox (AMX) for various PDE isoforms, and FIGS. 17 and 18 show western blotting images representing the amyloid beta expression pattern and G93A SOD-1 and P301L tau expression when amyloid beta-accumulated pericytes and astrocytes are treated with the finally selected amlexanox (AMX).

cathepsin B = experiment: Lysosomal function activity in astrocytes: degree of hydrolysis of cathepsin B; assay type: cell-based, mouse; settings: bafilomycin A1-treated mouse astrocytes
Method: Samples stained with enzymatic dyes such as cathepsin B and cathepsin L were administered into the cell culture to allow a reaction for 30 minutes, and changes in activity of lysosomes in cells were confirmed using a confocal microscope.
Astrocytes were stained with a fluorescence-tagged lysosomal protein, and the degrees of hydrolysis of cathepsin B and cathepsin L, which are lysosomal proteins, were analyzed.
FIG. 21 is a set of time-dependent confocal microscope images of mouse astrocytes, which are treated with bafilomycin A1, which is a vATPase inhibitor, to assess the degree of hydrolysis of cathepsin B (top) and cathepsin L (bottom).

5×FAD mice = experiment: Morris water maze test (hidden platform test and probe test) in Alzheimer's disease animal model; assay type: in vivo, mouse
Method: To confirm whether amlexanox (AMX; Z007) is effective even for animal models, an experiment was conducted using 5×FAD mice, which is one of the Alzheimer-type dementia animal models. Here, the 5×FAD mice, which is one of the Alzheimer-type dementia animal models, were provided in Korea and used.
Drug administration and behavioral evaluation were conducted on the same schedule as in FIG. […] Immediately after the end of the administration, a Morris water maze test, which is a behavioral experiment that can evaluate memory and learning ability, was conducted.
The Morris water maze test was performed as described in Behay. Brain Res. (155, 185-196) (refer to Behay. Brain Res., 155, 185-196). A water tank used in the water maze test is a cylindrical tank with a diameter of 90 cm and a height of 60 cm, and filled with water in which milk powder is diluted at 23±2[…] during a test period. In the tank, a transparent platform was installed 1 cm below the water surface, and four signs were placed outside the tank. The motion trajectory of a mouse was analyzed through a video tracking system (Smart3.0, Panlab, USA).
During the trial period, the mice were placed into the water tank at four randomly selected starting points toward the side where the platform was not shown. In each trial, an escape latency, which is the time to find the platform after the mouse is put into the water tank, was recorded, and when finding the platform, the mouse was allowed to stay on the platform for 10 seconds and then moved to a home cage. […] Each trial was performed four times a day for 5 days.
A probe test was conducted on the last […] of the test. After the platform was removed, the test was performed by allowing a mouse to swim in a water tank for 60 seconds and recording the time to first enter the location of the platform and how many times the mouse passed the location.

astrocytes = experiment: H2O2 oxidative damage cell death in astrocytes (LDH method); assay type: cell-based; settings: H2O2, after 24 hours
Method: For astrocyte culture, first, cerebral cortices (neocortices) were dissociated from murine fetuses (3 weeks old), and the obtained cortical tissue was divided into single cells. […] New cells were cultured and used each time without passaging.
Specifically, cell death caused by oxidative damage was induced by injecting H2O2 into astrocytes, a cell culture model similar to the animal model with a neurodegenerative disease such as Alzheimer's disease or Lou Gehrig's disease was manufactured. To confirm the cell protective effect of amlexanox (AMX) in the cell model manufactured as described above, an untreated H2O2 control and an experimental group produced by administering amlexanox (AMX) into the untreated H2O2 control were prepared, and after 24 hours, cell death was quantitatively assessed by a LDH method.

GFP-tagged mHttQ protein = experiment: GFP-mHttQ aggregation (GFP antibody); assay type: cell-based; settings: cells injected with GFP-tagged mHttQ protein, AMX
Method: A GFP-tagged mHttQ protein was injected into cells, thereby confirming a pharmacological reaction mediated by AMX using a GFP antibody. The accumulation of mHttQ in cells through aggregation was confirmed by GFP expression.

[1] = 1 mg/kg and 2.5 mg/kg intraperitoneal, compared with Veh group

**Q.** With CC(C)c1ccc2oc3nc(N)c(C(=O)O)cc3c(=O)c2c1 [amlexanox, 2-amino-7-isopropyl-5-oxo-5H-[1]benzopyrano[2,3-b] pyridine-3-carboxylic acid] as the compound, how does the “inhibitory effect specific for PDE3” value (PDE3) read?
**A.** significant inhibitory effect

**Q.** What about the “accumulation of toxic protein G93A SOD-1” value (G93A SOD-1) of the same compound?
**A.** reduced

**Q.** What about the “time to restore lysosomal activity of cathepsin B to the original state” value (cathepsin B) of the same compound?
**A.** ≤ 60 min

**Q.** And the “number of passing the target point” value (5×FAD mice; [1])?
**A.** increases

**Q.** What about the “time to find the target point” value (5×FAD mice; [1]) of the same compound?
**A.** increase

**Q.** What about the “memory and learning ability” value (5×FAD mice; AMX-administered) of the same compound?
**A.** improved

**Q.** And the cell death (astrocytes)?
**A.** up to 40%

**Q.** What about the “GFP expression (aggregated GFP-mHttQ protein)” value (GFP-tagged mHttQ protein) of the same compound?
**A.** decrease
